Data published in patent US7595063B2, “Compressed tablet formulation” (Merck & Co., Inc., priority 1998, dated 2009).

Experiment: crystallinity of efavirenz upon compression
Format: physicochemical
Settings: compression into tablet

**Q.** For `O=C1Nc2ccc(Cl)cc2[C@@](C#CC2CC2)(C(F)(F)F)O1` [efavirenz, (−)-6-chloro-4-cyclopropylethynyl-4-trifluoromethyl-1,4-dihydro-2H-3,1-benzoxazin-2-one], which crystallinity upon compression is on record?
**A.** loses crystallinity upon compression
